Laboratory results from the supplement of paper PMC11061612.

Assays:
[1] = tested on: ALL-PO (B-Lymphoblastic Leukemia); test: Bliss excess, mean over the matrix (fraction); higher = more synergy
How it was run: (§1)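 After 24 hours at 37°C and 5% CO2 in 1536-well plates, cells in DMEM/F12 or RPMI plus 10% FBS received two-drug dose matrices for 72 hours. Viability came from CellTiter-Glo 2.0 luminescence and was scaled as inhibition, anchored at 0 by vehicle wells and at 1 by blank wells. Combination Emax is taken as the second-highest inhibition in the matrix, and Bliss excess as the observed combination effect less EA + EB − EA·EB, with EA and EB the single-agent effects.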

[2] = tested on: BE-13 (T-Lymphoblastic Leukemia); test: as above
How it was run: as §1

[3] = tested on: CAL-33 (Oral Cavity Carcinoma); test: as above
How it was run: as §1

[4] = tested on: Detroit562 (Head and Neck Carcinoma); test: as above
How it was run: as §1

EW-11 (Ewing's Sarcoma) = test: as above
How it was run: as §1

[5] = tested on: HH (T-Cell Non-Hodgkin's Lymphoma); test: as above
How it was run: as §1

[6] = tested on: HuH-7 (Hepatocellular Carcinoma); test: as above
How it was run: as §1

MPP-89 (Mesothelioma) = test: as above
How it was run: as §1

NCI-H2052 (Mesothelioma) = test: as above
How it was run: as §1

[7] = tested on: NCI-H209 (Small Cell Lung Carcinoma); test: as above
How it was run: as §1

[8] = tested on: OV-56 (Ovarian Carcinoma); test: as above
How it was run: as §1

[9] = tested on: OVCAR-5 (Ovarian Carcinoma); test: as above
How it was run: as §1

[10] = tested on: SAS (Oral Cavity Carcinoma); test: as above
How it was run: as §1

[11] = tested on: SW1573 (Lung Adenocarcinoma); test: as above
How it was run: as §1

[12] = tested on: SW1710 (Bladder Carcinoma); test: as above
How it was run: as §1

[13] = tested on: TGBC1TKB (Biliary Tract Carcinoma); test: as above
How it was run: as §1

[14] = tested on: BFTC-909 (Kidney Carcinoma); test: combination Emax (second highest fraction inhibited in the dose matrix, 72 h); higher = more inhibition; extreme values may be limits of the assay
How it was run: as §1

[15] = tested on: NCI-H209 (Small Cell Lung Carcinoma); test: as above
How it was run: as §1

[16] = tested on: NCI-H524 (Small Cell Lung Carcinoma); test: as above
How it was run: as §1

[17] = tested on: YAPC (Pancreatic Carcinoma); test: as above
How it was run: as §1
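Throughout, for Bliss excess, mean over the matrix: after 72 h of two-drug dosing.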

Structure (SMILES)	Bliss excess [1]	Bliss excess [2]	Bliss excess [3]	Bliss excess [4]	Bliss excess (EW-11 (Ewing's Sarcoma))	Bliss excess [5]	Bliss excess [6]	Bliss excess (MPP-89 (Mesothelioma))	Bliss excess (NCI-H2052 (Mesothelioma))	Bliss excess [7]	Bliss excess [8]	Bliss excess [9]	Bliss excess [10]	Bliss excess [11]	Bliss excess [12]	Bliss excess [13]	combination Emax [14]	combination Emax [15]	combination Emax [16]	combination Emax [17]
Cc1cc2ncnn2cc1Nc1ncc2c(n1)n(C1CCOCC1)c(=O)n2C [AZD7648] + CCN(CCO)CCCOc1ccc2c(Nc3cc(CC(=O)Nc4cccc(F)c4)[nH]n3)ncnc2c1 [AZD2811] (first compound max 10 µM, 7x7, partner max 1 µM)	0.0236	-0.066	-0.0089	-0.0142	-0.0298	-0.0598	-0.0065	0.0023	-0.0104	0.0054	0.0307	0.043	0.0058	0.0327	0.0167	0.0111	0.384	0.596	0.985	0.271
CN(CCO)CC[C@H](CSc1ccccc1)Nc1ccc(S(=O)(=O)NC(=O)c2ccc(N3CCC([C@@H](O)c4ccccc4-c4ccc(Cl)cc4)CC3)cc2)cc1S(=O)(=O)C(F)(F)F [AZD4320] + Cc1cc2ncnn2cc1Nc1ncc2c(n1)n(C1CCOCC1)c(=O)n2C [AZD7648] (first compound max 1 µM, 7x7, partner max 10 µM)	0.0085	0.0028	-0.009	-0.0281	-0.0468	-0.0459	0.004	-0.0105	-0.0451	0.0477	-0.0109	-0.0452	-0.0533	-0.0592	-0.058	-0.0343	0.246	1	0.822	0.103
CN(CCO)CC[C@H](CSc1ccccc1)Nc1ccc(S(=O)(=O)NC(=O)c2ccc(N3CCC([C@@H](O)c4ccccc4-c4ccc(Cl)cc4)CC3)cc2)cc1S(=O)(=O)C(F)(F)F [AZD4320] + CCN(CCO)CCCOc1ccc2c(Nc3cc(CC(=O)Nc4cccc(F)c4)[nH]n3)ncnc2c1 [AZD2811] (first compound max 1 µM, 7x7, partner max 1 µM)	-0.009	0.0663	0.0228	0.0043	-0.0439	-0.0135	-0.0268	0.0246	-0.0462	0.184	-0.0293	-0.0458	-0.037	0.004	-0.0291	-0.0478	0.514	1	0.995	0.0932
N#Cc1cnc(Nc2cc(NC[C@H]3CNCCO3)c(C(F)(F)F)cn2)cn1 [SRA737] + O=c1[nH]cc(F)c(=O)[nH]1 [5-Fluorouracil] (first compound max 10 µM, 7x7, partner max 20 µM)		-0.0334			-0.0246	0.0123		0.0355				-0.0535	-0.0104		-0.0212	-0.0482			0.935	0.406
C[C@@H](c1ccc2nccn2c1)n1nnc2ncc(-c3cnn(C)c3)nc21 [Savolitinib] + CN(CC[C@H](CSC1=CC=CC=C1)NC2=C(C=C(C=C2)S(=O)(=O)NC(=O)C3=CC=C(C=C3)N4CCC(CC4)[C@H](C5=CC=CC=C5C6=CC=C(C=C6)Cl)O)S(=O)(=O)C(F)(F)F)CCO [AZD4320] (first compound max 1 µM, 7x7, partner max 1 µM)	-0.0307		-0.0104	-0.0189			-0.0064		-0.0147	-0.0172	-0.0078			-0.0657			0.29	1		
COc1cc2ncnc(Nc3ccc(F)c(Cl)c3)c2cc1OCCCN1CCOCC1 [Gefitinib] + CC(C)n1c(=O)n(C)c2cnc3cc(F)c(-c4ccc(OCCCN5CCCCC5)nc4)cc3c21 [AZD1390] (first compound max 10 µM, 7x7, partner max 0.3 µM)	-0.0558	-0.0956	-0.0366	-0.0476	-0.0563	-0.0263	-0.042	-0.05	-0.0544	-0.0831	-0.0543	-0.0846	-0.0454	-0.0726	-0.041	-0.0264	0.184	0.384	0.139	0.197
N#Cc1cnc(Nc2cc(NC[C@H]3CNCCO3)c(C(F)(F)F)cn2)cn1 [SRA737] + C=CCn1c(=O)c2cnc(Nc3ccc(N4CCN(C)CC4)cc3)nc2n1-c1cccc(C(C)(C)O)n1 [AZD1775] (first compound max 10 µM, partner max 1 µM)		0.0657			0.0992	0.0569		0.041				0.0274	0.0236		0.0292	-0.0128			0.912	0.495
Cc1cc2ncnn2cc1Nc1ncc2c(n1)n(C1CCOCC1)c(=O)n2C [AZD7648] + O=C(c1cc(Cc2n[nH]c(=O)c3ccccc23)ccc1F)N1CCN(C(=O)C2CC2)CC1 [Olaparib] (first compound max 10 µM, 7x7, partner max 10 µM)	-0.0202	-0.0079	-0.0237	-0.0108	-0.0826	-0.0269	-0.0389	-0.0163	-0.0521	0.0055	-0.0157	-0.0349	-0.0245	-0.0158	-0.0377	-0.0649	0.305	0.917	0.365	0.0464
Cc1cc2ncnn2cc1Nc1ncc2c(n1)n(C1CCOCC1)c(=O)n2C [AZD7648] + COc1cc([C@@H]2c3cc4c(cc3[C@@H](O[C@@H]3O[C@@H]5CO[C@@H](C)O[C@H]5[C@H](O)[C@H]3O)[C@H]3COC(=O)[C@H]23)OCO4)cc(OC)c1O [Etoposide] (first compound max 10 µM, 7x7, partner max 10 µM)		0.0881			0.0002	-0.0254		0.0858				0.0481	0.118		-0.0119	0.0108			0.617	0.531
Cc1cc2ncnn2cc1Nc1ncc2c(n1)n(C1CCOCC1)c(=O)n2C [AZD7648] + C=CCn1c(=O)c2cnc(Nc3ccc(N4CCN(C)CC4)cc3)nc2n1-c1cccc(C(C)(C)O)n1 [AZD1775] (first compound max 10 µM, partner max 1 µM)	0.0488	0.0217	0.0238	0.0575	-0.029	-0.0461	0.0039	0.0215	-0.0039	-0.0177	0.0602	-0.0038	0.0079	-0.0452	0.0692	-0.0362	0.619	0.743	0.808	0.533
N#Cc1cnc(Nc2cc(NC[C@H]3CNCCO3)c(C(F)(F)F)cn2)cn1 [SRA737] + CCc1c2c(nc3ccc(O)cc13)-c1cc3c(c(=O)n1C2)COC(=O)[C@]3(O)CC [SN-38] (first compound max 10 µM, 7x7, partner max 0.3 µM)		0.057			-0.132	0.017		0.0191				-0.0048	-0.0333		0.0736	0.0008			0.938	0.696
Cc1cc2ncnn2cc1Nc1ncc2c(n1)n(C1CCOCC1)c(=O)n2C [AZD7648] + C[C@@H]1COCCN1C2=NC(=NC(=C2)C3(CC3)[S@](=N)(=O)C)C4=C5C=CNC5=NC=C4 [AZD6738] (first compound max 10 µM, 7x7, partner max 10 µM)	0.0381	-0.0121	0.0013	0.0217	0.0104	0.0284	0.0151	-0.0034	0.0186	-0.0155	0.0044	0.0263	0.0211	0.0293	0.0067	-0.002	0.835	0.691	0.759	0.335
CN(CCO)CC[C@H](CSc1ccccc1)Nc1ccc(S(=O)(=O)NC(=O)c2ccc(N3CCC([C@@H](O)c4ccccc4-c4ccc(Cl)cc4)CC3)cc2)cc1S(=O)(=O)C(F)(F)F [AZD4320] + CC(=O)O[C@H]1C(=O)[C@@]2(C)[C@H]([C@H](OC(=O)c3ccccc3)[C@]3(O)C[C@H](OC(=O)[C@H](O)[C@@H](NC(=O)c4ccccc4)c4ccccc4)C(C)=C1C3(C)C)[C@]1(OC(C)=O)CO[C@@H]1C[C@@H]2O [Paclitaxel] (first compound max 1 µM, 7x7, partner max 3 µM)		0.0037			0.0303	0.254		0.108				0.0576	0.0322		0.141	0.118			1	0.395
C[C@@H](c1ccc2nccn2c1)n1nnc2ncc(-c3cnn(C)c3)nc21 [Savolitinib] + Cc1c2c(nn1C)CSCc1cc(n(C)n1)CSc1cc(c3ccccc3c1)OCCCc1c(C(=O)O)n(C)c3c-2c(Cl)ccc13 [AZD5991] (first compound max 1 µM, 7x7, partner max 1 µM)	-0.0254	0.065	-0.0423	0.0497	0.0361	-0.0258	-0.0276	-0.0423	-0.0419	-0.0187	-0.0547	-0.0536	-0.0341	-0.0475	-0.0351	-0.0238	0.179	0.323	0.351	0.11
COc1nnc2ccc(N3CCC(c4ccc(OCCN5CCN(C)C(=O)[C@H]5C)cc4)CC3)nn12 [AZD5153] + CN(CC[C@H](CSC1=CC=CC=C1)NC2=C(C=C(C=C2)S(=O)(=O)NC(=O)C3=CC=C(C=C3)N4CCC(CC4)[C@H](C5=CC=CC=C5C6=CC=C(C=C6)Cl)O)S(=O)(=O)C(F)(F)F)CCO [AZD4320] (first compound max 1 µM, 7x7, partner max 1 µM)	0.0079		-0.0117	0.0847			0.11		-0.0348	0.01	0.015			0.089			0.71	1		
